Common to all, as to assay: radiochemical AC activity assay, […]cAMP from [α-32P]ATP, Sf9 membranes
Common to all, as to format: biochemical

The target of experiment [1] is T1, AC1 (recombinant) (Bos taurus, UniProt P19754).
T1 construct: gene ADCY1; recombinant membranous AC1 expressed by baculovirus in Sf9 cells; crude Sf9 membranes
Particulars: read-out: RecombinantACs / AC1.

Experiment [2] deals with T2, AC2 (recombinant) (Rattus norvegicus, UniProt P26769).
T2 construct: gene Adcy2; recombinant membranous AC2 expressed by baculovirus in Sf9 cells; crude Sf9 membranes
Particulars: read-out: RecombinantACs / AC2.

Experiment [3] addresses T3, AC5 (recombinant) (Canis lupus, UniProt P30803).
T3 construct: gene ADCY5; recombinant membranous AC5 expressed by baculovirus in Sf9 cells; crude Sf9 membranes
Particulars: read-out: RecombinantACs / AC5.

The target of experiment [4] is T2, AC2 (recombinant). Particulars: read-out: Recombinant ACs / AC2.
In experiment [5] the target is T3, AC5 (recombinant). Particulars: read-out: Recombinant ACs / AC5.
The target in experiment [6] is T1, AC1 (recombinant). Particulars: read-out: Recombinant ACs / AC1.

SMILES strings stand for the structures.

T3 sequence (P30803 whole entry): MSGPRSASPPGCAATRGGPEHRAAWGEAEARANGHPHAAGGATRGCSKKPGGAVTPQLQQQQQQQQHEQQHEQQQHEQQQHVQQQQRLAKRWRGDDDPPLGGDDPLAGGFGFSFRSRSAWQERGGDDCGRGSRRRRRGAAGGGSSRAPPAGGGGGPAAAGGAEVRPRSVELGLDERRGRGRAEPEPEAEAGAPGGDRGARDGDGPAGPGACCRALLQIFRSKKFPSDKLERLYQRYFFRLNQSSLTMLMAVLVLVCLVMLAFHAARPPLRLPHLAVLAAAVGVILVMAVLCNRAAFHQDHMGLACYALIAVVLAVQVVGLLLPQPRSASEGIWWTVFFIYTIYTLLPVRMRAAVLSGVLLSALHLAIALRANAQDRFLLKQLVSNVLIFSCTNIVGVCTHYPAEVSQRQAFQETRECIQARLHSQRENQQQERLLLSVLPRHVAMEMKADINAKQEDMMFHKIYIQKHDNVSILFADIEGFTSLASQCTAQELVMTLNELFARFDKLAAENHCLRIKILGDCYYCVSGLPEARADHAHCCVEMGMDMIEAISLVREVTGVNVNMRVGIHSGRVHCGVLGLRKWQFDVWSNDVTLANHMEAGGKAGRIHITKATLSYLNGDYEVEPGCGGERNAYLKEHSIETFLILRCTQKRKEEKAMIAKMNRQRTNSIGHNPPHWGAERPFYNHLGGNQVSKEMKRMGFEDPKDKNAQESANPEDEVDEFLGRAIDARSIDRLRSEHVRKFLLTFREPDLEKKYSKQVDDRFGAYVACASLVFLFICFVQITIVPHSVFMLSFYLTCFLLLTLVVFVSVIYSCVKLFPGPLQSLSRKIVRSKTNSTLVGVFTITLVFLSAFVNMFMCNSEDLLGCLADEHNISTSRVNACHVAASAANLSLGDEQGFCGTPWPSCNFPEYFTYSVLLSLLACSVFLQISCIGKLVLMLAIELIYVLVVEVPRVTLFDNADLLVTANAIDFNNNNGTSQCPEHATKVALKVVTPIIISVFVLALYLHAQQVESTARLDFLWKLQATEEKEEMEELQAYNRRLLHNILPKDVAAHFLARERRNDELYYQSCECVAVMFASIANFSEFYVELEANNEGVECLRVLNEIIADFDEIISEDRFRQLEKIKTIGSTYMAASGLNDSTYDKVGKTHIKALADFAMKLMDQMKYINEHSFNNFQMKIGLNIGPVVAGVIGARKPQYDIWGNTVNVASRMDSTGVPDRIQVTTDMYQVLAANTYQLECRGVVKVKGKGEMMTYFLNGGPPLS
T1 sequence (P19754 whole entry): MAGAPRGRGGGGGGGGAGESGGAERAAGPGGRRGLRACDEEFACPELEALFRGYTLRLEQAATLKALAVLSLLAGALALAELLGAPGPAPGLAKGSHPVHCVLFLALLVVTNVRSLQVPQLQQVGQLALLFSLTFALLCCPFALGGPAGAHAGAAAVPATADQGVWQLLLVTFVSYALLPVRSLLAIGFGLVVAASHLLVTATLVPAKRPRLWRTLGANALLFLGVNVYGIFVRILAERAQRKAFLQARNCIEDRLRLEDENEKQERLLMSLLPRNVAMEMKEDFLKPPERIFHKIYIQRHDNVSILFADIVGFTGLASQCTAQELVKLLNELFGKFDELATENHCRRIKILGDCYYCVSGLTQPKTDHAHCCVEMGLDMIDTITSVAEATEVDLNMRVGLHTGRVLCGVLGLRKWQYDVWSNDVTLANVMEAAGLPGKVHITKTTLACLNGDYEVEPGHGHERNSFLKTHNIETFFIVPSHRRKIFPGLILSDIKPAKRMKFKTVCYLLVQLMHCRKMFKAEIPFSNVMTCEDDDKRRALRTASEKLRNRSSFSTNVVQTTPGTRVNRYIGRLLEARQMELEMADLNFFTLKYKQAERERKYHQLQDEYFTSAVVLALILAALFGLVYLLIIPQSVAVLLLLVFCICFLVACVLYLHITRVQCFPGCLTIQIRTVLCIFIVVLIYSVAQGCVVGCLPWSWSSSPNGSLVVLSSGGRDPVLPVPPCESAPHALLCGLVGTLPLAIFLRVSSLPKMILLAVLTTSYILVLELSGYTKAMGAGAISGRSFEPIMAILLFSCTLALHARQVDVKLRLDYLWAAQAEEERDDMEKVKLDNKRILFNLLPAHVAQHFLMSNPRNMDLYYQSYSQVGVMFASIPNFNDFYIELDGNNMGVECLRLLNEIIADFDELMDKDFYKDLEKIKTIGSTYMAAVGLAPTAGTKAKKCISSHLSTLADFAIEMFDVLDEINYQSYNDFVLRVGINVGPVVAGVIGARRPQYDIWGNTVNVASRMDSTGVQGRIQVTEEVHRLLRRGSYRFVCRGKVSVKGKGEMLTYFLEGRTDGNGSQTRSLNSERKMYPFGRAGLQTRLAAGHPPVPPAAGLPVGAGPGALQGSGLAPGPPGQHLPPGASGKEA
T2 sequence (P26769 whole entry): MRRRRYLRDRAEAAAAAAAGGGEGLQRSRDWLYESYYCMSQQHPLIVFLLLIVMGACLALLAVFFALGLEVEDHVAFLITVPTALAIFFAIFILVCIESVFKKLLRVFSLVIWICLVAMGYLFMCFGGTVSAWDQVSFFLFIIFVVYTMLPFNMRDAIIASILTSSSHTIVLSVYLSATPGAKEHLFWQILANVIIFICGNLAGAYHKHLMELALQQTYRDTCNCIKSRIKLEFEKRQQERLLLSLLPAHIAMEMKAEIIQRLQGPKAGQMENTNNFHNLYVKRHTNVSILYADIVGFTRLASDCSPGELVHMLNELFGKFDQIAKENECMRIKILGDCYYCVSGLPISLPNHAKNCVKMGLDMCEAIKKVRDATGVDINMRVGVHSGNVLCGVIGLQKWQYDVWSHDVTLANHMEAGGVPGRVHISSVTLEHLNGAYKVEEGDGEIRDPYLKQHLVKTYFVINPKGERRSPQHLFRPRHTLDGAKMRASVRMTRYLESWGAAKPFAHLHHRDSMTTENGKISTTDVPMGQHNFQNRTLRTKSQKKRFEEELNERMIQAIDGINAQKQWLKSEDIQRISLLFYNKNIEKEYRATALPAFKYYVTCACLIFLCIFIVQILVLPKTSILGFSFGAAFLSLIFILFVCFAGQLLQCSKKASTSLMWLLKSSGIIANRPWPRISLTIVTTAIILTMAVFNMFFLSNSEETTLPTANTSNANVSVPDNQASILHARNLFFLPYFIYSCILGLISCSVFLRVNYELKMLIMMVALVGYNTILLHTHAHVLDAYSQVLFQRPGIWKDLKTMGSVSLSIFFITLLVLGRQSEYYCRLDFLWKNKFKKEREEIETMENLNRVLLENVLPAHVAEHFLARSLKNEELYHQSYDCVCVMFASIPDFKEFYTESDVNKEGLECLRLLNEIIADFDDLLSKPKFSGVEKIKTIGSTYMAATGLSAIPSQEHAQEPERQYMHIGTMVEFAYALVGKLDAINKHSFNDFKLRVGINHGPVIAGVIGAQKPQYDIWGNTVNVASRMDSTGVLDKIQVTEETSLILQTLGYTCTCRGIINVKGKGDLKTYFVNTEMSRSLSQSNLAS

As for `C=C[C@@]1(C)CC(=O)[C@]2(O)[C@@]3(C)[C@@H](O)CCC(C)(C)[C@@H]3[C@H](O)[C@H](OC(C)=O)[C@@]2(C)O1` [Forskolin], the EC50 on AC1 (recombinant) [1] stood at 2300 nM; on AC2 (recombinant) [2], 13.4 µM; on AC5 (recombinant) [3], 5.8 µM.
As to `Nc1ncc2c(n1)CC(c1ccco1)CC2=O` (stereo not drawn) [NKY80, 2-amino-7-(2-furanyl)-7,8-dihydro-5(6H)-quinazolinone], the IC50 at AC2 (recombinant) [4] stood at 1110 µM; at AC5 (recombinant) [5] it was 81.1 µM; on AC1 (recombinant) [6], 330 µM.
In the same order, the values of `Nc1ncnc2c1ncn2C1CCCO1` (stereo not drawn) [SQ22,536, 9-(tetra-hydro-2-furanyl)-9H-purin-6-amine] are 381 µM, 9.5 µM and 110 µM.
Take `Nc1ncnc2c1ncn2[C@@H]1O[C@H](CO)[C@@H](O)[C@@H]1O` [vidarabine, 9-β-D-arabinosyladenine]: the IC50 on AC2 (recombinant) [4] is 545 µM; on AC5 (recombinant) [5] it was 20 µM; at AC1 (recombinant) [6] it was 138 µM.
